Marks after values point to notes of the source that are not given here.
What was measured:
[1] = test system: PAF-Induced Paw Edema; assay: PAF-induced paw edema (water displacement); assay type: in vivo, CD-1 female mice; details: for percent inhibition of paw edema: oral, 15 min after PAF (1.0 µg s.c.), vs vehicle treated controls
Protocol: A second model, in which edema is induced by platelet activating factor (PAF), was used to evaluate activity.
(§1) The conditions were based on those reported previously [Calhoun et al., ibid.]. […] PAF (1.0 µg) or arachidonic acid (1.0 mg) dissolved in 50 µl of 5% ethanol in saline, were injected s.c. into the plantar surface of the right hind paw of CD-1 female mice (20-25 g) obtained from Charles River Labs. The mice were under ether anesthesia during this procedure. The volume of the right foot was measured to the level of the lateral malleous by water displacement before treatment and 15 min after PAF injection or 30 min after archidonate injection. The change in paw volume was calculated for each mouse and the significance for each group was determined by a paired t test analysis.

[2] = test system: intraocular pressure; assay: Reduction of intraocular pressure (anti-glaucoma activity); assay type: in vivo, rabbits; details: 50 µl drop of a 1% emulsion into the rabbit eye
Protocol: Reduction of intraocular pressure in rabbits was determined by the addition of a 50 µl drop of a 1% emulsion of the cannabinoid into the rabbit eye. This test is a measure of anti-glaucomatic activity.

[3] = test system: Arachidonic Acid-Induced Paw Edema; assay: Arachidonic acid-induced paw edema (water displacement); assay type: in vivo, CD-1 female mice; details: for percent inhibition of paw edema: oral, 30 min after arachidonic acid (1.0 mg s.c.), vs vehicle treated controls
Protocol: The induction of paw edema in rodents by injection of arachidonic acid has been used as an experimental model for inflammation [Calhoun, W., et al., Agents and Actions, 21, 306 (1987)]. Prior administration of non-steroidal anti-inflammatory drugs (NSAIDs) in many cases leads to a dose related inhibition of the edematous response which may be considered a predictor of clinical efficacy.
as §1

[4] = test system: mouse; assay: Ring test for cataleptic effects; assay type: in vivo; details: 5-min test period, vehicle 7.7 ± 4.4
Protocol: The lack of CNS activity for the compounds described herein may be seen from the data shown in Table V. This was measured by the so-called "ring test" [Pertwee, R.G., et al., J. Pharmacol., 46, 753 (1972)] in which the cataleptic effects of cannabinoids can be quantitated. The compounds produced little or no response when compared with the parent drug.
The cataleptic response was measured using the ring test. Mice were placed on a horizontal wire ring 5.5 cm in diameter, which was attached to a 16 cm vertical rod. The hind paws and fore paws were placed at opposite sides of the ring. It is important that the ambient temperature is maintained at 30°C and that the environment be free of auditory stimuli and bright lights. The criteria for immobility are detailed by Pertwee. The response is calculated as the fraction of time the mouse is immobile over a 5-min test period. Measurements were always done between 2 and 4 p.m. and the animals were used only once.

[5] = test system: mouse; assay: Mouse hot plate test (55°C) for antinociception; assay type: in vivo
Protocol: In the hot plate test for analgesia an aluminum surface was maintained at 55 ± 1°C by circulating water through passages in the metal. A clear plastic cylinder 18 cm in diameter and 26 cm high was placed on the surface to prevent escape. The end point was taken when the mouse either performed a hind paw lick or jumped off the surface; in no case were the animals kept for more than 30 secs on the plate. Mice were never used more than one time; control values were always measured at 11 a.m. and test values at 2 p.m. The drugs were administered orally 90 min before the hot plate test. The percent change in response time (latency) was calculated by comparing the mean of the control values with the mean of the test values and statistical signficance determined by a paired t-test analysis using software (Statview, 512) from Brainpower, Inc., Calabasas, Ca.

[6] = test system: N-methyl-D-aspartate (NMDA) induced lethality; assay: Protection against NMDA induced lethality; assay type: in vivo, Balb/c male mice; details: drug 10 mg/kg, 90 min before NMDA (125 mg/kg) s.c.; no drug 0/20
Source text: (§2) The present compounds are active in several tests generally used to indicate neuroprotection.

[7] = test system: peritoneal leukocytes; assay: Leukocyte adhesion assay, peritoneal cells collected after oral dosing; assay type: in vivo, CD-1 mice
Protocol: Leukocytes are thought to be major contributors to the inflammatory response and their ability in this regard is reflected by their adhesiveness to a variety of substrates [Audette, C.A., et al., Life Sci., 47, 753 (1990)].
The details of the leukocytes adhesion assay have been previously reported [Audette et al., ibid.]. In brief, peritoneal cells from femals CD-1 mice (20-25 g) were collected at 90 min following oral administration of the drug or vehicle (50 µl peanut oil). Cells from each treatment group (N=3) were pooled and equal numbers aliquoted into six culture dish wells (1.9 cm^2 area). After incubation for 18-20 hours, non-adhering cells were removed and the remaining cell monolayer quantitated by DNA measurement.

[8] = test system: forebrain ischemia (unilateral occlusion); assay: Forebrain ischemia (unilateral occlusion); assay type: in vivo; details: mongolian gerbils
Source text: as §2

[9] = test system: picrotoxin induced lethality; assay: Protection against picrotoxin induced lethality; assay type: in vivo, Balb/c male mice; details: drug 10 mg/kg, 120 min before picrotoxin (8 mg/kg) s.c.; no drug 0/17
Source text: as §2

[10] = dose 0.25 mg/kg orally 90 min before the hot plate test
[11] = dose 0.50 mg/kg orally 90 min before the hot plate test
[12] = dose 1.0 mg/kg orally 90 min before the hot plate test
[13] = dose 0.05 mg/kg oral, cells collected 90 min after administration
[14] = dose 0.05 mg/kg oral, cells collected 90 min after administration, 18-20 hours incubation
[15] = dose 0.10 mg/kg oral, cells collected 90 min after administration
[16] = dose 0.10 mg/kg oral, cells collected 90 min after administration, 18-20 hours incubation
[17] = dose 0.50 mg/kg oral, cells collected 90 min after administration
[18] = dose 0.50 mg/kg oral, cells collected 90 min after administration, 18-20 hours incubation
[19] = dose 1.00 mg/kg oral, cells collected 90 min after administration
[20] = dose 1.00 mg/kg oral, cells collected 90 min after administration, 18-20 hours incubation

Compound	percent change in latency [5, 10]	percent change in latency [5, 11]	percent change in latency [5, 12]	Survival rate (number of survivors out of total number of animals used) [6]	adhering cells, percent of control [7, 13]	number of adhering cells x 10^-6 ± S.D. [7, 14]	adhering cells, percent of control [7, 15]	number of adhering cells x 10^-6 ± S.D. [7, 16]	adhering cells, percent of control [7, 17]	number of adhering cells x 10^-6 ± S.D. [7, 18]	adhering cells, percent of control [7, 19]	number of adhering cells x 10^-6 ± S.D. [7, 20]	percent inhibition of paw edema ([1]; dose 0.5 mg/kg)	protection against forebrain ischemia [8]	Survival rate (number of survivors out of total number of animals used) [9]	other results
CCCCCc1cc(O)c2c(c1)OC(C)(C)[C@@H]1CC=C(C(=O)O)C[C@@H]21 [Δ^6-THC-7-oic acid, reference compound]																percent inhibition of paw edema ([1]; dose 40.0 mg/kg): 50.2%
CCCCCCC(C)(C)c1cc(O)c2c(c1)OC(C)(C)[C@H]1CC=C(C(=O)O)C[C@H]21 [HU-235]	61.5(17)** percent	51.7(8)* percent	14.7(5) percent	7/10	102% of control	1.29±0.05 x 10^-6	110% of control	1.38±0.17 x 10^-6	116% of control	1.46±0.05 x 10^-6	56% of control	0.70±0.12 x 10^-6	60.1* percent	protect against forebrain ischemia	8/12	Reduction of intraocular pressure [2]: Significant reduction; reduction of paw edema (result in words) ([3]; arachidonic acid model, summary of Table 1): effective in reducing paw edema; percent inhibition of paw edema ([3]; dose 0.050 mg.kg): 42.1 (N.S.) percent; percent inhibition of paw edema ([3]; dose 0.100 mg.kg): 65.8* percent; percent inhibition of paw edema ([3]; dose 0.250 mg.kg): 52.6* percent; percent inhibition of paw edema ([3]; dose 0.55 mg.kg): 47.4%; Response ± SD (means of the fraction of time the mice remained immobile) ([4]; dose 0.25 mg/kg): 12.3 ± 10.3; Response ± SD (means of the fraction of time the mice remained immobile) ([4]; dose 0.5 mg/kg): 13.8 ± 7.9; Response ± SD (means of the fraction of time the mice remained immobile) ([4]; dose 1.0 mg/kg): 10.4 ± 10.6; Response ± SD (means of the fraction of time the mice remained immobile) ([4]; dose 4.0 mg/kg): 8.7 ± 5.6; percent change in latency ([5]; dose 0.025 mg/kg orally 90 min before the hot plate test): 10.3(5) percent; percent change in latency ([5]; dose 0.050 mg/kg orally 90 min before the hot plate test): 61.7(5)* percent; percent change in latency ([5]; dose 0.10 mg/kg orally 90 min before the hot plate test): 49.5(20)* percent; adhering cells, percent of control ([7]; dose 0.01 mg/kg oral, cells collected 90 min after administration): 106% of control; number of adhering cells x 10^-6 ± S.D. ([7]; dose 0.01 mg/kg oral, cells collected 90 min after administration, 18-20 hours incubation): 1.34±0.14 x 10^-6; percent inhibition of paw edema ([1]; dose 0.05 mg/kg): 44.4 (N.S.) percent; percent inhibition of paw edema ([1]; dose 0.10 mg/kg): 38.7* percent; percent inhibition of paw edema ([1]; dose 0.25 mg/kg): 31.9* percent; activity against PAF-induced edema (result in words) ([1]; summary of Table II): active
CCCCCc1cc(O)c2c(c1)OC(C)(C)[C@@H]1CCC(C)=C[C@@H]21 [Δ^1-THC, reference compound]																Response ± SD (means of the fraction of time the mice remained immobile) ([4]; dose 40 mg/kg): 48.9 ± 16
THC-7-oic Acid [reference compound]																number of adhering cells x 10^-6 ± S.D. ([7]; dose 20 mg/kg oral, cells collected 90 min after administration, own control 0.81±0.03): 0.67±0.02 x 10^-6; adhering cells, percent of control ([7]; dose 20 mg/kg oral, own control 0.81±0.03): 90.6% of control; number of adhering cells x 10^-6 ± S.D. ([7]; dose 40 mg/kg oral, cells collected 90 min after administration, own control 0.81±0.03): 0.55±0.22 x 10^-6; adhering cells, percent of control ([7]; dose 40 mg/kg oral, own control 0.81±0.03): 67.9% of control
CCCCCCC(C)(C)c1cc(O)c2c(c1)OC(C)(C)[C@H]1CC=C(CO)C[C@H]21 [HU-211, reference compound]	30.0(5)* percent	72.5(5)*** percent	-10.2(5) percent	11/16	124% of control	1.09±0.08 x 10^-6	50% of control	0.44±0.03 x 10^-6	73% of control	0.64±0.06 x 10^-6	67% of control	0.59±0.06 x 10^-6	37.5%	protect against forebrain ischemia	6/10	percent inhibition of paw edema ([1]; dose 1.0 mg/kg): 21.9%

From patent publication EP0642504B1 (priority 1991, dated 1993)
